≈ marks a conversion by molar mass, not a printed value. Calls of active or inactive are those of the source. The rule behind the calls is not given here.
How the values were obtained:
[1] = Solubility of compound at pH 7.4 measured for 24 hrs; type: physicochemical; details: buffer
[2] = Chemical stability of the compound at pH 3 measured for 24 hrs by HPLC analysis; type: physicochemical; details: buffer, read-out: Stability
[3] = Chemical stability of the compound at pH 7.4 measured for 24 hrs by HPLC analysis; type: physicochemical; details: buffer, read-out: Stability
[4] = Solubility of compound at pH 3 measured for 24 hrs; type: physicochemical; details: buffer
[5] = target: T1, Fatty-acid amide hydrolase 1 (Homo sapiens, UniProt O00519); test: Inhibition of human recombinant FAAH using AMC-AA as substrate preincubated for 30 mins followed by substrate addition and measured after 30 mins by multimode plate reader analysis
T1 sequence (O00519 whole entry): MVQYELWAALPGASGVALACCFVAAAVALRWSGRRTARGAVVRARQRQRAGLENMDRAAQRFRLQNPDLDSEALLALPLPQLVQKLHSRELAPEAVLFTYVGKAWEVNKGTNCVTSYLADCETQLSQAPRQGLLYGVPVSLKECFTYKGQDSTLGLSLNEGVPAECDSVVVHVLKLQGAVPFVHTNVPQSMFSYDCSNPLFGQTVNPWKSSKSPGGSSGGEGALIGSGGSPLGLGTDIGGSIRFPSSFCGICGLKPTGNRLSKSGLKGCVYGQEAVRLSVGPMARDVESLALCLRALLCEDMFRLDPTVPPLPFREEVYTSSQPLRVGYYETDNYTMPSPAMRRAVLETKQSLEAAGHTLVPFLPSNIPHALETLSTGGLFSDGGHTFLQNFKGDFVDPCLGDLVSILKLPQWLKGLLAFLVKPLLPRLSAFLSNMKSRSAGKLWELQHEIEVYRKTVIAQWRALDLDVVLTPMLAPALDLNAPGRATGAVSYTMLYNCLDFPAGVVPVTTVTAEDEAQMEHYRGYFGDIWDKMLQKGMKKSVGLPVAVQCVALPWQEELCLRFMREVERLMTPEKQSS

Monoglyceride lipase = target: T2, Monoglyceride lipase (Homo sapiens, UniProt Q99685); test: Inhibition of human recombinant MAGL using 7-hydroxycoumarinyl arachidonate as substrate preincubated for 30 mins followed by substrate addition and measured after 30 mins by multimode plate reader analysis
T2 sequence (Q99685 whole entry): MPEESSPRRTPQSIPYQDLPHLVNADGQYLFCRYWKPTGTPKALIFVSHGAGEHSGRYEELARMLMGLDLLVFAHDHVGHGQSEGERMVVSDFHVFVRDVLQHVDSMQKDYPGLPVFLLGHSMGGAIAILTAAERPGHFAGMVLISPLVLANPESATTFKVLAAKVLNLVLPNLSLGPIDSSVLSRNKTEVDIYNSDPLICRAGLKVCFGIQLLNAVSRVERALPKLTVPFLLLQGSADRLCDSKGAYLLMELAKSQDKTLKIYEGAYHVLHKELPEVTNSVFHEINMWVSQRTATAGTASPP

[6] = Cytotoxicity against mouse NIH3T3 cells assessed as inhibition of cell growth measured for 24 hrs by neutral red uptake assay; type: toxicity, cell-based
[7] = Solubility of compound at pH 3 measured for 12 hrs; type: physicochemical; details: buffer
[8] = Solubility of compound at pH 7.4 measured for 12 hrs; type: physicochemical; details: buffer
[9] = target: T3, Fatty-acid amide hydrolase 1 (Homo sapiens) (UniProt O00519); test: Reversible inhibition of human recombinant FAAH at 10 to 100 nM using AMC-AA as substrate preincubated for 30 mins followed by substrate addition and measured after 30 mins by rapid dilution method; details: dose 10-100 nM, time 1.0 hrs
T3 sequence (whole entry): T1 sequence (O00519 whole entry)

[10] = Dissociation constant, pKa of the compound; type: physicochemical
[11] = Neurotoxicity against Wistar rat Hippocampus assessed as cell survival at 0.3 to 100 nM measured for 96 hrs by densitometric analysis; type: toxicity, tissue-based; details: 0.1 µM, dose 0.3-100 nM
Hippocampus [12] = test: Neuroprotective activity against Wistar rat Hippocampus assessed as reduction in LPS/IFN-gamma induced PI uptake in CA1 region at 0.3 to 100 nM measured for 96 hrs; type: functional; details: dose 0.3-100 nM
Hippocampus [13] = test: Neuroprotective activity against Wistar rat Hippocampus assessed as reduction in LPS/IFN-gamma induced PI uptake in CA1 region at 3 to 100 nM measured for 96 hrs; type: functional, tissue-based; details: dose 3-100 nM
1321N1 [14] = test: Cytotoxicity against human 1321N1 cells assessed as inhibition of cell growth at 100 nM measured for 24 hrs by MTT assay; type: functional; design: scale not given: the % may be the effect or the level left
Hippocampus [15] = test: Neuroprotective activity against Wistar rat Hippocampus assessed as reduction in LPS/IFN-gamma induced PI uptake in CA1 region measured for 96 hrs; type: functional, tissue-based
1321N1 [16] = test: Cytotoxicity against human 1321N1 cells assessed as inhibition of cell growth at 1 uM measured for 24 hrs by MTT assay; type: functional; design: scale not given: the % may be the effect or the level left
1321N1 [17] = test: Antiinflammatory activity against human 1321N1 cells assessed as reduction in TBHP-induced ROS production at 10 nM incubated for 24 hrs by CellROX green reagent based flow cytometry assay; type: functional, cell-based
1321N1 [18] = test: Cytotoxicity against human 1321N1 cells assessed as inhibition of cell growth at 30 uM measured for 24 hrs by MTT assay; type: functional; design: scale not given: the % may be the effect or the level left
1321N1 [19] = test: Cytotoxicity against human 1321N1 cells assessed as inhibition of cell growth at 10 uM measured for 24 hrs by MTT assay; type: functional; design: scale not given: the % may be the effect or the level left
Hippocampus [20] = test: Neuroprotective activity against Wistar rat Hippocampus assessed as reduction in LPS/IFN-gamma induced PI uptake in CA1 region at 0.1 to 10 uM measured for 96 hrs; type: functional, tissue-based; details: dose 0.1-10 µM
1321N1 [21] = test: Antiinflammatory activity against human 1321N1 cells assessed as reduction in TBHP-induced ROS production at 1 uM incubated for 24 hrs by CellROX green reagent based flow cytometry assay; type: functional, cell-based
1321N1 [22] = test: Cytotoxicity against human 1321N1 cells assessed as inhibition of cell growth at 10 nM measured for 24 hrs by MTT assay; type: functional; design: scale not given: the % may be the effect or the level left

SMILES | solubility at 24 h [1] [µM] | remaining at 24 h [2] [%] | remaining at 24 h [3] [%] | solubility at 24 h [4] [µM] | IC50 [5] [µM] | IC50 (Monoglyceride lipase) [µM] | other results
Cc1cc(C(N)=O)c(-c2cccc(OC(=O)NC3CCN(CCc4ccccc4)CC3)c2)o1 | 67 (≈ 30 µg/mL) | 96 | > 99 | 282 (≈ 126 µg/mL) | 0.188 | > 10 | 
O=C(Oc1cccc(-c2nn[nH]n2)c1)N1CCN(CCCc2ccccc2)CC1 | 272 (≈ 107 µg/mL) | > 99 | > 99 | 268 (≈ 105 µg/mL) | 0.253 | > 10 | 
Cc1cc(C(N)=O)c(-c2cccc(OC(=O)NCCCCCCc3ccccc3)c2)o1 |  | 31 | 9 |  |  |  | IC50 at 24 h [6]: 19.2 µM; solubility at 12 h [7]: < 1 µM; solubility at 12 h [8]: < 1 µM
CN(C(=O)Oc1cccc(-n2ccc(C(N)=O)c2)c1)C1CCN(CCc2ccccc2)CC1 |  |  |  |  | > 10 | > 10 | 
Cc1cc(C(N)=O)c(-c2cccc(OC(=O)NC3CCN(CCCc4ccccc4)CC3)c2)o1 |  |  |  |  | 0.407 | > 10 | 
Cc1cc(C(=O)O)c(-c2cccc(OC(=O)N3CCN(CCCc4ccccc4)CC3)c2)o1 | 259 (≈ 116 µg/mL) | > 99 | 97 | 249 (≈ 112 µg/mL) | 0.128 | > 10 | 
NC(=O)c1cccc(-c2cccc(OC(=O)NC3CCCCC3)c2)c1 [URB-597] |  |  |  |  |  | 9.38 | inhibition [9]: inactive
Cc1cc(C(N)=O)c(-c2cccc(OC(=O)N3CCN(CCCc4ccccc4)CC3)c2)s1 |  |  |  |  | 0.0156 | > 10 | 
Cc1cc(C(N)=O)c(-c2cccc(OC(=O)N3CCC(NCCCc4ccccc4)CC3)c2)o1 | 322 (≈ 149 µg/mL) | > 99 | > 99 | 353 (≈ 163 µg/mL) | 0.165 | 9.88 | 
Cc1cc(C(N)=O)c(-c2cccc(OC(=O)N3CCC(NCCc4ccccc4)CC3)c2)o1 | 206 (≈ 92.2 µg/mL) | > 99 | > 99 | 277 (≈ 124 µg/mL) | 0.0263 | > 10 | IC50 at 24 h [6]: 45 µM; pKa [10]: 7.6; Activity [11]: Non-Toxic; inhibition [9]: Active; Activity (Hippocampus [12]): Active; Activity (Hippocampus [13]): Active
NC(=O)c1cn(-c2cccc(OC(=O)NCCCCCCc3ccccc3)c2)nn1 |  | 63 | 79 |  | 0.0158 | 0.479 | IC50 at 24 h [6]: 35 µM
O=C(NCCCCCCc1ccccc1)Oc1cccc(-c2nn[nH]n2)c1 | 108 (≈ 39.5 µg/mL) | < 1 | > 99 |  | 0.00754 | 8.4 | Activity (1321N1 [14]): 98.5%; Activity (Hippocampus [15]): Dose-Dependent Effect; IC50 at 24 h [6]: 39 µM; Activity (1321N1 [16]): 98.8%; Activity (1321N1 [17]): Active; Activity (1321N1 [18]): 97%; Activity (1321N1 [19]): 99.8%; Activity [11]: Non-Toxic; Activity (Hippocampus [20]): Active; Activity (1321N1 [21]): Active; Activity (1321N1 [22]): 100.8%
Cc1cc(C(N)=O)c(-c2cccc(OC(=O)N(C)C3CCN(CCc4ccccc4)CC3)c2)s1 |  |  |  |  | 8.45 | > 10 | 
NC(=O)c1ccn(-c2cccc(OC(=O)NCCCCCCc3ccccc3)c2)c1 |  | 32 | 38 | 3 (≈ 1.22 µg/mL) | 0.00372 |  | 
Cc1cc(C(N)=O)c(-c2cccc(OC(=O)N(C)C3CCN(CCc4ccccc4)CC3)c2)o1 |  |  |  |  | 6.56 | > 10 | 
Cc1cc(C(=O)O)c(-c2cccc(OC(=O)NCCCCCCc3ccccc3)c2)o1 | 172 (≈ 72.5 µg/mL) | < 1 | 92.7 |  | 0.0105 | 2.44 | 
Cc1cc(C(N)=O)c(-c2cccc(OC(=O)N3CCC(CCCc4ccccc4)CC3)c2)o1 |  |  |  |  | 0.0117 | 4.12 | 
NC(=O)c1cn(-c2cccc(OC(=O)N3CCN(CCCc4ccccc4)CC3)c2)nn1 | 38 (≈ 16.5 µg/mL) | > 99 | > 99 | 298 (≈ 129 µg/mL) | 0.0474 | 2.9 | 
Cc1cc(C(N)=O)c(-c2cccc(OC(=O)NC3CCN(CCc4ccccc4)CC3)c2)s1 |  |  |  |  | 0.194 | > 10 | 
Cc1cc(C(N)=O)c(-c2cccc(OC(=O)N3CCN(CCCc4ccccc4)CC3)c2)o1 | < 1 | 98 | > 99 | 168 (≈ 75.2 µg/mL) | 0.00829 | 5.06 | Activity (1321N1 [14]): 97%; EC50 (Hippocampus [15]): 0.00291 µM; IC50 at 24 h [6]: 6.4 µM; Activity (1321N1 [16]): 100%; Activity (1321N1 [17]): Active; Activity (1321N1 [18]): 96%; pKa [10]: 8.5; Activity (1321N1 [19]): 101%; Activity [11]: Non-Toxic; inhibition [9]: Active; Activity (Hippocampus [12]): 70%; Activity (1321N1 [21]): Active; Activity (1321N1 [22]): 99.3%
NC(=O)c1ccn(-c2cccc(OC(=O)NC3CCN(CCc4ccccc4)CC3)c2)c1 |  |  |  |  | 0.315 | > 10 | 
Cc1cc(C(N)=O)c(-c2cccc(OC(=O)NCCCCCCN3CCN(C)CC3)c2)o1 |  |  |  |  | 1.04 | > 10 | 

From ChEMBL document CHEMBL5331072, “Development of potent and selective FAAH inhibitors with improved drug-like properties as potential tools to treat neuroinflammatory conditions” (Eur J Med Chem, 2023)
